US20260034121A1, “COMPOSITIONS AND METHODS FOR ALPHA-SYNUCLEIN FIBRIL GROWTH INHIBITION” (Washington University, priority 2024, published 2026)

Target: T1, aSyn fibril growth (in vitro aSyn fibrils) (Homo sapiens, UniProt P37840)
T1 construct: made in house; host or cells: E. coli BL21-CodonPlus (DE3)-RIL, pRK172 plasmid
Test: FlAsH fluorescence fibril growth assay with in vitro assembled aSyn fibril seeds
Format: biochemical
Text: Inhibition of fibril growth by small molecule compounds is likely to be mediated primarily by binding interactions with either monomer, fibrils, or both. However, secondary nucleation may occur and contribute to fibril growth under some conditions, and compounds may affect growth through interaction with oligomeric intermediates to inhibit conversion to fibrils. In one proposed mechanism, a compound binds to the end surface of fibrils and interferes with the binding of the new monomer required to extend the seed or fibril (FIG. 1). Since binding will deplete the free concentration of the inhibitor, measured IC50 values will be proportional to the concentration of the binding target (fibril seeds) and proportional to the concentration of monomer, with which the inhibitor competes for binding.
The fibril growth assay was performed similarly to previously published methods. […] Maximum inhibition is calculated as (Intensity100μM−Intensity0μM)/Intensity0μM×100% where Intensity100μM and Intensity0μM is the intensity at 100 μM of compound and intensity with no compound in the presence of fibrils and monomers.

Compound: CCOC(=O)C1CCN(Cc2cc(OC)c(O)c(OC)c2)CC1 [Compound 1, ethyl 1-[(4-hydroxy-3,5-dimethoxyphenyl)methyl]piperidine-4-carboxylate]
- inhibition at 100 µM (at 100 μM compound versus no compound, read-out: Max Inhibition [%] [mean ± std]): 79%
- IC50 (read-out: IC50 [95% Cl] [μM] [mean ± std], 1 μM fibril seeds, 3 μM C2-aSyn monomer, 3-hour incubation): 18 µM
